Test results taken from paper PMC3082441 (Journal of medicinal chemistry, 2008).
Read-outs that look alike come from different tables or passages of the source.

Legend:
human sAC = settings: read-out: reported IC50 against human sAC; cited from earlier work
CyaC [1] = target: T1, CyaC (Limnospira platensis, UniProt O32393); settings: cited from earlier work
[2] = system: endogenous tmACs expressed in HEK293T cells; assay type: biochemical, mammalian; settings: 100 μM compound
CyaC [3] = target: T1, CyaC
AC1 = AC1 (Homo sapiens, UniProt Q08828); settings: 100 μM compound; forskolin-stimulated; transfected HEK293T lysate
AC5 = AC5 (Homo sapiens, UniProt O95622); settings: 100 μM compound; forskolin-stimulated; transfected HEK293T lysate
AC9 = target: T2, AC9 (Homo sapiens, UniProt O60503); settings: 100 μM compound, transfected HEK293T lysate
T2 sequence (O60503 1-1353): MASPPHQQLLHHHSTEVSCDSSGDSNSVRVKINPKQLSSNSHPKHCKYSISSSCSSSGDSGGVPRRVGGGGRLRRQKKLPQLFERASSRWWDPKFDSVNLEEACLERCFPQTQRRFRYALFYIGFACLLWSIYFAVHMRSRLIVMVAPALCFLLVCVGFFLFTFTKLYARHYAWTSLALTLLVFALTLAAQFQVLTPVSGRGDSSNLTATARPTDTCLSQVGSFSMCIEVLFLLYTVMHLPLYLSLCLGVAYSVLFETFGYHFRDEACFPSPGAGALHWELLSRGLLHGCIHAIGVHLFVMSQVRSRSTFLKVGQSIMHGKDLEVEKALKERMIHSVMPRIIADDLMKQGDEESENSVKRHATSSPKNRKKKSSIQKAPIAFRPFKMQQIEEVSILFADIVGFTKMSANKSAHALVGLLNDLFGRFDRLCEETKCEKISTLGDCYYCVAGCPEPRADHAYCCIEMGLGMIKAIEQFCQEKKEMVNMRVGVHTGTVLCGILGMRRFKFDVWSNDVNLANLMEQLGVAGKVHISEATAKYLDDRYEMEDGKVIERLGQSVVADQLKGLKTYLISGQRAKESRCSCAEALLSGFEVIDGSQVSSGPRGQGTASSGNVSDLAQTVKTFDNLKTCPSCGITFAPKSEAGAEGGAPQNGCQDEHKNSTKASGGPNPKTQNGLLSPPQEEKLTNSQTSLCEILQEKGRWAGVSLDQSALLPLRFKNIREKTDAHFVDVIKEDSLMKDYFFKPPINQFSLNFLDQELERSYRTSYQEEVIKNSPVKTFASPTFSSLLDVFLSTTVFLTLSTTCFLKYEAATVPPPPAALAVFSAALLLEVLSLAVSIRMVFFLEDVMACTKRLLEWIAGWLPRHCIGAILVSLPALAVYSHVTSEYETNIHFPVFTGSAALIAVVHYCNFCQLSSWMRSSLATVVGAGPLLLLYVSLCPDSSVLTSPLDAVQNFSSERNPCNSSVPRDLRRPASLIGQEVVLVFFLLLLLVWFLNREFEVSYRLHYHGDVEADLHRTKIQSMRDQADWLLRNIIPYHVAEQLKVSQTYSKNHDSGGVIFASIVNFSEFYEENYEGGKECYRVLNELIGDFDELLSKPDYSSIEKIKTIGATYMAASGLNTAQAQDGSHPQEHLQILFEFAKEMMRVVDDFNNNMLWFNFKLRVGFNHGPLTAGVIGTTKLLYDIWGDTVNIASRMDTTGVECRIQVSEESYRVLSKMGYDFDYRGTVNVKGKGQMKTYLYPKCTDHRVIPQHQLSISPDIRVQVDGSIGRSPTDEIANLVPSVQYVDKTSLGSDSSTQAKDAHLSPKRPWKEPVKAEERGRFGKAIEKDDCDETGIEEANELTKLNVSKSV

mammalian sAC = target: T3, mammalian sAC (Homo sapiens, UniProt Q96PN6); experiment: Activity assay with purified, recombinant mammalian sAC; assay type: biochemical, human or rat; settings: dose-response curve
T3 sequence (Q96PN6 1-469): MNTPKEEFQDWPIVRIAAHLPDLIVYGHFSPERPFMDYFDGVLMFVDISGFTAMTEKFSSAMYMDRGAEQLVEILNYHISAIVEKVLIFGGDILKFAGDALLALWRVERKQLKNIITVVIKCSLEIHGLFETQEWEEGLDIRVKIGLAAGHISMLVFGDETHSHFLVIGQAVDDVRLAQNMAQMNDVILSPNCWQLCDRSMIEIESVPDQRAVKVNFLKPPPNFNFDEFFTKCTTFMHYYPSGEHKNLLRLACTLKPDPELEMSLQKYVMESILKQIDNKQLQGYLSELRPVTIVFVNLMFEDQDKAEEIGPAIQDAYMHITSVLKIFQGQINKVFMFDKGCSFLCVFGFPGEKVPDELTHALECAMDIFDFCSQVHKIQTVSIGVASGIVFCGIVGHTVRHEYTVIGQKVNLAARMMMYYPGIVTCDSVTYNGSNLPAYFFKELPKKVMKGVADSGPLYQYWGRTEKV

AC2 = AC2 (Homo sapiens, UniProt Q08462)
CyaC [4] = target: T1, CyaC; experiment: biochemical; settings: read-out: IC50 against CyaC in vitro (estimated)

T1 sequence (O32393 998-1202 limits assumed): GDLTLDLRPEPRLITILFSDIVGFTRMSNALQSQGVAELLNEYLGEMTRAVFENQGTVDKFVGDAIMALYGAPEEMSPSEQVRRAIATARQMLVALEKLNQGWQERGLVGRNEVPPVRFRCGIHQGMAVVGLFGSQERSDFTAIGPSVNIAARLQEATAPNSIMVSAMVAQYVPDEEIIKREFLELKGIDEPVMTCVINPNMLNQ
AC5, sequence (O95622 whole entry, species assumed): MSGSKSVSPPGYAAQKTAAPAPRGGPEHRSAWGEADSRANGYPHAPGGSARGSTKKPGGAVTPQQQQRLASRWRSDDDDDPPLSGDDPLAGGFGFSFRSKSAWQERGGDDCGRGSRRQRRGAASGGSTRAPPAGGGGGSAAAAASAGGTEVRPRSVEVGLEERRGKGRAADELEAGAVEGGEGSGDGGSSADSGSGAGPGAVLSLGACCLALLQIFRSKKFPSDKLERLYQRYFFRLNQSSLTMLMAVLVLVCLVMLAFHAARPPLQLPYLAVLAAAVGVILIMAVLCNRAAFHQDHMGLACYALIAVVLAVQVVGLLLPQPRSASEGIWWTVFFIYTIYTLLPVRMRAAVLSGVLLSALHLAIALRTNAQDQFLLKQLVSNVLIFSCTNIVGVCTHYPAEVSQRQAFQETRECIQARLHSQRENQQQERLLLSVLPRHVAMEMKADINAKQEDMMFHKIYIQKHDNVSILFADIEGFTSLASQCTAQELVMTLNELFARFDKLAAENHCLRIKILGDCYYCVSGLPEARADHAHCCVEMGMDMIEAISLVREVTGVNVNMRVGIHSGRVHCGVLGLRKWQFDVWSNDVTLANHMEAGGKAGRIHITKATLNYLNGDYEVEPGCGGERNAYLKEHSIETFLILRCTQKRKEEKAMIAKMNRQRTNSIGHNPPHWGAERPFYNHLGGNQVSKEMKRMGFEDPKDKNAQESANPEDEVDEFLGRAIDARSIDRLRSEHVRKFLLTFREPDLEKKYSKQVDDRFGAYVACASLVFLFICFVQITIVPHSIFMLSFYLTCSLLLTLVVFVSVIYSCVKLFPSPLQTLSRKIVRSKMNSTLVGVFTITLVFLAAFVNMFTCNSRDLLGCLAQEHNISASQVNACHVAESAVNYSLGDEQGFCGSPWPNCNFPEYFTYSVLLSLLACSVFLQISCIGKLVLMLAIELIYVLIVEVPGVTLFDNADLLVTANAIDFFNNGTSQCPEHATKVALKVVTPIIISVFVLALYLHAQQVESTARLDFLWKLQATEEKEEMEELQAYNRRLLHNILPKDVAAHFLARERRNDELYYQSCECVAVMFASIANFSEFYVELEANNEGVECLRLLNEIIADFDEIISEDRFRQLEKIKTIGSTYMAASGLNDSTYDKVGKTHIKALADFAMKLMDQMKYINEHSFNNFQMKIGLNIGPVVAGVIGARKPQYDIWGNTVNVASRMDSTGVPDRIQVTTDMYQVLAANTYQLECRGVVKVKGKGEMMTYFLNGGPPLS
AC1, sequence (Q08828 whole entry): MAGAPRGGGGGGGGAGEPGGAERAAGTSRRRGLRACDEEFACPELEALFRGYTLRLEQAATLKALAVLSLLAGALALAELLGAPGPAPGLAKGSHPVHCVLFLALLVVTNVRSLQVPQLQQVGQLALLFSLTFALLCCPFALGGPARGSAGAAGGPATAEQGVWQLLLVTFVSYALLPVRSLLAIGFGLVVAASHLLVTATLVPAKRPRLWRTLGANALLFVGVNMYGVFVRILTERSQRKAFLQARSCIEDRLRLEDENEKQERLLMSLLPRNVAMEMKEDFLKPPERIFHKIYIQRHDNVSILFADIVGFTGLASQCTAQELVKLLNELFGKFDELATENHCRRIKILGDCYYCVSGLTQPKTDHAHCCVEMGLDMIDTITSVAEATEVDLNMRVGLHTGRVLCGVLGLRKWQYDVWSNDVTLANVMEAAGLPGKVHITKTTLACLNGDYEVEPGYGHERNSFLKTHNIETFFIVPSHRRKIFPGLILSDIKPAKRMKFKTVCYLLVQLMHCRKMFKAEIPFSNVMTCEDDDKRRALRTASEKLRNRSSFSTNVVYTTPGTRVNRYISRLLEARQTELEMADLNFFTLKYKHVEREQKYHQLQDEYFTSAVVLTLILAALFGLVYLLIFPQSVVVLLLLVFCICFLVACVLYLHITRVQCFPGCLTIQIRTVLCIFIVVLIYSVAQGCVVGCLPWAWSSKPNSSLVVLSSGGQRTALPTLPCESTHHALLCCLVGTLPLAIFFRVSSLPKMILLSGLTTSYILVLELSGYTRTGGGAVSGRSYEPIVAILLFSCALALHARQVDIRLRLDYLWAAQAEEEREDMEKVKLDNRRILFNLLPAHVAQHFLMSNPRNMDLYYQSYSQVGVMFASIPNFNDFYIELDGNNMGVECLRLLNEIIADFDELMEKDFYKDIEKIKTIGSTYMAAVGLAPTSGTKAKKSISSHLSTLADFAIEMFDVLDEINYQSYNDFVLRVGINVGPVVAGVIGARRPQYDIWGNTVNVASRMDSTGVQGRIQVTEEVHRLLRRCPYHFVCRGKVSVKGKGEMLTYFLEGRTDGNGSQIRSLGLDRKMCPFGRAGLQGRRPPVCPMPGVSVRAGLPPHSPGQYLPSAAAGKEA
AC2, sequence (Q08462 whole entry): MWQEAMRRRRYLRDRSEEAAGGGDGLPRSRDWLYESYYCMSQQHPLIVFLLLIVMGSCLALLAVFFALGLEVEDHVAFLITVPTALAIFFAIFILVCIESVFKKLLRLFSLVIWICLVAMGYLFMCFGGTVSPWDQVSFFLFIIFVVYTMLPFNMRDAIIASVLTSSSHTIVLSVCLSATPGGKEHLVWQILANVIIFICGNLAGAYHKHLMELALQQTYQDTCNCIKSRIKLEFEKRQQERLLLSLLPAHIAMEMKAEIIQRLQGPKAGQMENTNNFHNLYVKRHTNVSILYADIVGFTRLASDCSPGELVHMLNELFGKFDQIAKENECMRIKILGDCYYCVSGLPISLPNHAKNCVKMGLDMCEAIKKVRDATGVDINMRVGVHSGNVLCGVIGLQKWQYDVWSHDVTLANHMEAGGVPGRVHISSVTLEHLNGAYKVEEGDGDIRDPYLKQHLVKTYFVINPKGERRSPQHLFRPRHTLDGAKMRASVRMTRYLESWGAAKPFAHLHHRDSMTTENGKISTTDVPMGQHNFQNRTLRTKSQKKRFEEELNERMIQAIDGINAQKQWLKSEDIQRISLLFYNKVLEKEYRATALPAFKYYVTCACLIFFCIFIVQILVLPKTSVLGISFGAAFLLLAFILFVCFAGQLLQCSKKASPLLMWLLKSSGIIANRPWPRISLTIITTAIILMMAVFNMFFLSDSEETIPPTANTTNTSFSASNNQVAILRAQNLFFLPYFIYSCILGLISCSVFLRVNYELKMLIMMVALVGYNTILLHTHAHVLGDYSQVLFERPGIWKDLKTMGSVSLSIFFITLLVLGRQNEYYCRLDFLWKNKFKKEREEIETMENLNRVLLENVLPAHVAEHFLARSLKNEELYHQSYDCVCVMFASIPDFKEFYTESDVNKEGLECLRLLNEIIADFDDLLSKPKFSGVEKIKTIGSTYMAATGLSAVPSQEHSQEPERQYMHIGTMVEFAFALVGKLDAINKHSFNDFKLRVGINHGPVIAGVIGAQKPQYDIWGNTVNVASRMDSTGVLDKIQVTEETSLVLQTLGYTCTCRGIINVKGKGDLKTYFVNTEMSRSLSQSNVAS

Which IC50 (human sAC) does the source give for C[C@H]1O[C@@H](n2cnc3c(N)ncnc32)C[C@@H]1OP(=O)(O)OP(=O)(O)OP(=O)(O)O [2′,5′-didesoxy-3′-ATP] here?
The IC50 was 0.7 µM.

For C[C@]12CC[C@@H]3c4cc(O)c(O)cc4CC[C@H]3[C@@H]1CC[C@@H]2O [Compound 1, 2-hydroxy-17β-estradiol], which “Mode of inhibition with respect to ATP (reported)” value (CyaC [1]) is on record?
The value was “noncompetitive inhibitor”.

For C[C@]12CC[C@H]3[C@@H](CCC4=CC(=O)CC[C@@]43C)[C@@H]1CC[C@@H]2C(=O)COS(=O)(=O)c1ccc(Br)cc1 [Compound 2, 3,20-dioxopregn-4-en-21-yl 4-bromobenzenesulfonate], which “Inhibition of forskolin-stimulated AC activity in HEK293T whole cell extracts” value [2] is on record?
Its value is “no significant inhibition”.

What about the “Vmax of CyaC” value (CyaC [3]; 1 μM inhibitor) of the same compound?
Its value is 0.38 nmol/mg/min.

What about the “Vmax of CyaC” value (CyaC [3]; […] inhibitor) of the same compound?
The value was 0.29 nmol/mg/min.

What about the “Vmax of CyaC” value (CyaC [3]; […] μM inhibitor) of the same compound?
Its value is 0.08 nmol/mg/min.

What about the “Mode of inhibition with respect to ATP” value (CyaC [3]; various substrate concentrations at fixed inhibitor amounts) of the same compound?
The value was “noncompetitive inhibitor”.

What about the “Inhibition of AC1 activity” value (AC1) of the same compound?
Its value is “did not significantly inhibit”.

What about the “Inhibition of AC5 activity” value (AC5) of the same compound?
The value was “did not significantly inhibit”.

And the “Effect on basal AC9 activity” value (AC9)?
Its value is “did not appreciably affect”.

What does the source list for O=C(O)c1cc2c(cc1S(=O)(=O)O)C1C(C3C2C2(Cl)C(Cl)=C(Cl)C3(Cl)C2(Cl)Cl)C2(Cl)C(Cl)=C(Cl)C1(Cl)C2(Cl)Cl (stereo not drawn) [Compound 3, 1,2,3,4,5,6,7,8,13,13,14,14-dodecachloro-1,4,4a,4b,5,8,8a, 12b-octahydro-11-sulfo-1,4:5,8-dimethanotriphenylene-10-carboxylic acid]?
Hill coefficient for sAC inhibition (mammalian sAC): 2.0; Inhibition of AC1 activity (AC1): only moderate inhibition; Inhibition of basal AC2 activity (AC2; 100 μM compound, basal, transfected HEK293T lysate): only moderate inhibition; Effect on AC2 in the presence of forskolin (AC2; in the presence of forskolin, data not shown): stimulation; Inhibition of AC5 activity (AC5): only moderate inhibition; Effect on basal AC9 activity (AC9): only moderate inhibition

For BrC(c1cccc2ccccc12)c1cccc2ccccc12 [Compound 4, 1-(bromo(1-naphthyl)methyl)naphthalene], which potency estimated from few doses (CyaC [4]) is on record?
The potency estimated from few doses was roughly 200 µM.

For C[C@H]1[C@H](C)CC[C@]2(C(=O)O)CC[C@]3(C)C(=CC[C@@H]4[C@@]5(C)C[C@@H](O)[C@H](O)[C@@](C)(CO)[C@@H]5[C@H](O)C[C@]43C)[C@H]12 [Compound 8, 2,3,6,23-tetrahydroxyurs-12-en-28-oic acid], which potency estimated from few doses (CyaC [4]) is on record?
The potency estimated from few doses was roughly 100 µM.
